Measured values reported in patent publication US20200277262A1, “N-(CYANO-SUBSTITUTED BENZYL OR PYRIDINYLMETHYL)-3-HYDROXYPICOLINAMIDE DERIVATIVES” (Takeda Pharmaceutical Company Limited, priority 2017, published 2020).

What was measured:
[1] = target: T1, PHD2 enzyme (residues 181-417) (Homo sapiens, UniProt Q9GZT9); assay: Inhibition of PHD2 Enzyme (LC/MS detection of hydroxylated peptide); format: biochemical; conditions: 5 nM enzyme, 1 μM biotin-labeled peptide, 2 μM 2-oxoglutarate, 60 min pre-incubation, pH 7.3; -log(IC50), IC50 molar; read-out: Inhibition of PHD2 (pIC50) (converted)
T1 construct: The IC50 values for the PHD2 enzyme (residues 181-417) were determined
T1 sequence (Q9GZT9 181-417): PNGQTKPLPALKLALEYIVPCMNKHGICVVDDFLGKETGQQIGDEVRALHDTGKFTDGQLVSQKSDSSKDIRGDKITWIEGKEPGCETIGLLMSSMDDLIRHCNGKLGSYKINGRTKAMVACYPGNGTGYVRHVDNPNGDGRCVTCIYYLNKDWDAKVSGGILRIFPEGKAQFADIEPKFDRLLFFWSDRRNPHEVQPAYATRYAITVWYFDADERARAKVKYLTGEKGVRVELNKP
Protocol: The IC50 values for the PHD2 enzyme (residues 181-417) were determined by mixing increasing amounts of an inhibitor with a fixed amount of enzyme (5 nM, final concentration) and Biotin-labeled peptide (Biotin-Asp-Leu-Glu-Met-Leu-Ala-Pro-Tyr-Ile-Pro-Met-Asp-Asp-Asp-Phe-Gln-Leu, 1 μM final concentration) and 2-oxyglutarate (2 μM final concentration) in 50 mM HEPES, 50 mM KCl, 0.5 mM TCEP, 2 μM FeCl2, 0.1 mg/mL BSA, at pH 7.3. The reaction was conducted by pre-incubating the enzyme in the presence of the inhibitor for 60 minutes at room temperature. The activity of the free enzyme was measured by adding the peptide, the 2-oxoglutarate, and ascorbic acid (1 mM final concentration). The enzymatic activity was quenched after 60 minutes by adding an excess of a tight binding inhibitor to the assay mixture. The amount of product released was measured by using a LC/MS system (Agilent HPLC with Applied Biosystems API3000 Mass Spectrometer). Data were analyzed using the classical isotherm equation for the determination of IC50 values and are reported in Table 1, below, as pIC50, i.e., −log(IC50), where IC50 is molar concentration of the test compound at 50% inhibition.
(§1) Table 1 lists biological data for some of the compounds shown in the examples, where larger pIC50 and pEC50 values represent higher potency or activity, respectively. The IC50 data (reported in Table 1 as pIC50) were obtained using the enzyme-based assay described in the specification under the heading “Inhibition of PHD2 Enzyme.” The EC50 data (reported in Table 1 as pEC50) were obtained using the cell-based assay described in the specification under the heading “Cell-based HIF-α Stabilization Assay.”

[2] = system: HIF1a protein content in H9c2 rat cardiomyocytes; assay: Cell-based HIF-α Stabilization Assay (HIF1a ELISA); conditions: H9c2 cells, 24 hours compound incubation, concentration giving 50% of desferrioxamine maximum response, -log(EC50), EC50 molar, read-out: Stabilization of HIF-α (pEC50) (converted)
Protocol: H9c2 rat cardiomyocytes (ATCC) were seeded in 96-well tissue culture microplates and cultured for 24 hours prior to addition of compounds (11 point range of serial dilutions) or DMSO vehicle. After 24 hours of compound incubation, whole cell extracts were prepared by lysing cells in cell extraction buffer containing protease and phosphatase inhibitors (Meso-Scale Discovery). HIF1a protein content was assessed by ELISA (Meso-Scale Discovery) and expressed as % relative to the maximum response obtained from the positive control, desferrioxamine (Sigma-Aldrich). EC50 for each compound was obtained by curve-fitting using XLfit4 MicroSoft Excel curve-fitting software to calculate the compound concentration that results in 50% of the desferrioxamine maximum response.
as §1

| IC50 [1] [µM] | SMILES | EC50 [2] [µM] |
| --- | --- | --- |
| 1.26 | N#Cc1ccc2c(c1)CCCC2NC(=O)c1ncccc1O (centres unmarked) [Example 18, N-(6-cyano-1,2,3,4-tetrahydronaphthalen-1-yl)-3-hydroxypicolinamide] | 50.1 |
| 0.0501 | Cc1cc(C#N)cc(C)c1CNC(=O)c1ncc(C(F)(F)F)cc1O [Example 28, N-(4-cyano-2,6-dimethylbenzyl)-3-hydroxy-5-(trifluoromethyl)picolinamide] | 15.8 |
| 0.0501 | CCN1CCN(C(=O)c2cnc(C(=O)N[C@@H]3CCc4cc(C#N)ccc43)c(O)c2)CC1 [Example 9, (R)—N-(5-cyano-2,3-dihydro-1H-inden-1-yl)-5-(4-ethylpiperazine-1-carbonyl)-3-hydroxypicolinamide] | 12.6 |
| 0.0794 | CCN1CCN(c2cnc(C(=O)NCc3c(C)cc(C#N)cc3C)c(O)c2)CC1 [Example 41, N-(4-cyano-2,6-dimethylbenzyl)-5-(4-ethylpiperazin-1-yl)-3-hydroxypicolinamide] | 6.31 |
